Measured values: US8598123B2, “Peptide analogues” (Pfizer Inc., priority 2010, dated 2013)
Where two headings read alike, the source gives them in different places.

Key:
[1] = Human liver microsomal stability assay (HLM); format: in vitro ADME; details: 37° C., 1 h time course, read-out: HLM clearance
Text: (§1) In vitro measurement of substrate metabolism can be determined using the microsomal cytochrome P450 mono-oxygenase system. This is a useful application in ranking clearance of a number of compounds by Phase I (including cytochrome P450) metabolism prior to in vivo assessment Measurement of intrinsic clearance using these methods also allows a comparison of species difference to be made to assist with translation of pharmacokinetic parameters from preclinical to clinical study.
(§2) Rat and Human Liver Microsomal Stability Assay (RLM and HLM Respectively)
(§3) Human and rat Liver microsomal assays were performed using pooled microsomes from the Pfizer Global Supply (BD Gentest™). Chemical reagents were purchased from commercial sources (Sigma-Aldrich) and drug entities synthesised at Pfizer Global Research. Incubation mixtures contained 50 mM phosphate buffer pH 7.4, 5 mM MgCl2, 5 mM isocitric acid and 1 unit/ml isocitric dehydrogenase. The microsomes were defrosted at room temperature and sufficient volumes added to give a final concentration of 0.5 nmol cytochrome P450/ml. Following the addition of 1 μM of substrate, the incubation was pre-incubated at 37° C. for 5 minutes. The reaction was then initiated by the addition of 1 mM NADP and incubation aliquots are taken over a 1 h time course. The reaction was subsequently stopped by addition of acetonitrile cooled on ice. The incubation mixture was then centrifuged and the supernatant removed for injection onto LC-MS/MS system. Providing that the substrate concentration is below the Km, the metabolism should be first order giving a log-linear plot of substrate disappearance over time. The gradient of this line is the first order rate constant (k) and this maybe converted to estimate a substrates intrinsic clearance when factoring in the protein concentration.
(§4) The intrinsic clearance in rat or human liver microsomes is calculated from:
(§5) Where, k=−slope of Ln concentration vs. time (min−1)

[2] = Rat liver microsomal stability assay (RLM); format: in vitro ADME; details: 37° C., 1 h time course, read-out: RLMclearance
Text: as §1, §2, §3, §4, §5

[3] = physchem; details: pH 7.4
Text: LogD octanol (pH 7.4) is a measure of lipophilicity that accounts for both hydrophobic and hydrogen-bonding interactions of a given substrate. This assay is based on shake-flask methodology, performed in a fully automated manner in a 0.1M phosphate buffer pH7.4—octanol system.
After addition of the test substance in DMSO stock solution to the mixture and vigorous agitation followed by separation of the octanol and buffer layers by centrifugation, duplicate samples are removed from each layer and diluted prior to analysis by LC-MS/MS.
The duplicate log D values must be with 0.4 log units of each other and the positive controls must be within 0.2 log units of the known log D value.

[4] = molecular target: T1, mu opioid receptor (Homo sapiens, UniProt P35372); test: Inhibition of forskolin stimulated cAMP production (alphascreen); format: cell-based; parameters: expressed in transfected cells; host or cells: CHO cells
Protocol: Forskolin Stimulated cAMP
The ability of mu opioid receptor agonists to inhibit forskolin stimulated cAMP production was measured in CHO cells recombinantly expressing the mu opioid receptor, using alphascreen technology as described in Nickolls et al., 2005, with the additional inclusion of 50 uM forskolin in the assay buffer. (J Pharmacol Exp Ther 313; 1281-88, Functional selectivity of melanocortin 4 receptor peptide and non-peptide agonists: Evidence for ligand specific conformational states. Nickolls S A., Fleck B., Hoare S., Maki R.)
Data appear in the Table below under “mu-opioid IC50” in nM.
Target sequence in this assay (P35372 whole entry, species assumed): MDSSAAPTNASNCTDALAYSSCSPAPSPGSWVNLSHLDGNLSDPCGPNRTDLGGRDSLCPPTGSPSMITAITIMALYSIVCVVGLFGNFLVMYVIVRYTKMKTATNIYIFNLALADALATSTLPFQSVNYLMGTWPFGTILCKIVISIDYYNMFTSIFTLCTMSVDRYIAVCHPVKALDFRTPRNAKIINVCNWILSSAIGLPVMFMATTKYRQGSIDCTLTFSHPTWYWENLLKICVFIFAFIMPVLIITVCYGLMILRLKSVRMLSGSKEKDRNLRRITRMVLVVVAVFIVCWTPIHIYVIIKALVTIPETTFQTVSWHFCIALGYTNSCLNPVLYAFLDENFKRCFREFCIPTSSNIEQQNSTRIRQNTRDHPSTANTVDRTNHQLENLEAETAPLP

[5] = molecular target: T1, mu opioid receptor; test: Beta-arrestin recruitment assay (DiscoveRx PathHunter); format: cell-based; parameters: host or cells: U2OS cells
Protocol: The ability of agonists to cause recruitment of beta-arrestin to the mu opioid receptor was measured using DiscoveRx PathHunter technology. A pro-linked tagged mu-opioid receptor and an EA-tagged beta-arrestin were expressed in U20S cells and beta-arrestin recruitment measured following the methodology in McGuinness et al., 2009 (J Biomol Screen 14:49-58, Characterizing cannabinoid CB2 receptor ligands using DiscoverRx PathHunter beta-arrestin assay—McGuinness D., Malikzay A., Visconti R., Lin K., Bayne M., Monsma F., Lunn C A.)
Data appear in the Table below under “arrestin EC50” in nM.
Target sequence in this assay (P35372 whole entry, species assumed): as above
Target sequence in this assay (P32121 whole entry partner, species assumed): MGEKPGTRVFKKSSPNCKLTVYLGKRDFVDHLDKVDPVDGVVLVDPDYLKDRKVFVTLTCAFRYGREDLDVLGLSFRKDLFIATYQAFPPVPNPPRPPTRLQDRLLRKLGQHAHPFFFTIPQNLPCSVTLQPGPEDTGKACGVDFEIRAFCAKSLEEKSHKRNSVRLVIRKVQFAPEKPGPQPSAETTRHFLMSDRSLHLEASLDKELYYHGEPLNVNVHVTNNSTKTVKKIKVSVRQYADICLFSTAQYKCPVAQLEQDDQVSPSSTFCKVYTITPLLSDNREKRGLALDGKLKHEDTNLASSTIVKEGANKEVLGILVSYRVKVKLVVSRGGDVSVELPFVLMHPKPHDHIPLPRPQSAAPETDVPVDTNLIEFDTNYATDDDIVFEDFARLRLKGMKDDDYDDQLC

[6] = octanol / 0.1M phosphate buffer pH 7.4, positive controls; cited from earlier work
[7] = pH 7.4, human liver microsomes, 1 μM substrate
[8] = pH 7.4, rat liver microsomes, 1 μM substrate
[9] = U20S cells expressing pro-linked tagged mu-opioid receptor and EA-tagged beta-arrestin, read-out: β-Arrestin EC50
[10] = CHO cells recombinantly expressing the mu opioid receptor, 50 uM forskolin, read-out: mu-opioid IC50

Row | Compound | microsomal CLint at 1 μM [1, 7] | microsomal CLint at 1 μM [2, 8] | EC50 [5, 9] | logD [3] | EC50 [5] | other results
1 | Cc1cc(O)cc(C)c1C[C@H](NC(=N)N)C(=O)N[C@H](C)C(=O)NCCCc1ccccc1 [Example 11, (S)-2-Guanidino-3-(4-hydroxy-2,6-dimethyl-phenyl)-N-[(R)-1-(3-phenyl-propylcarbamoyl)-ethyl]-propionamide] |  |  |  |  |  | microsomal CLint at 1 μM ([1]; pooled human liver microsomes, pH 7.4, 1 μM substrate): 74 µL/min/mg; microsomal CLint at 1 μM ([2]; pooled rat liver microsomes, pH 7.4, 1 μM substrate): 61 µL/min/mg; logD ([3]; octanol / 0.1 M phosphate buffer): -0.1; IC50 [4]: 8.59 nM
2 | Cc1cc(O)cc(C)c1C[C@H](NC(=N)N)C(=O)N[C@H](C)C(=O)NC[C@@H](N)Cc1ccccc1 [Example 9] | 13.6 µL/min/mg | 12.9 µL/min/mg | 55.2 nM |  |  | IC50 [4, 10]: 15.3 nM
3 | C[C@@H](NC(=O)[C@H](Cc1ccc(O)cc1)NC(=N)N)C(=O)NC[C@H](Cc1ccccc1)NC(=N)N [Example 4] | 9.54 µL/min/mg | 13.4 µL/min/mg |  | -0.3 | 5070 nM | 
4 | Cc1cc(O)cc(C)c1C[C@H](NC(=N)N)C(=O)N[C@H](CCCCCC(=O)O)C(=O)NCCCc1ccccc1 [Example 7] | 8.61 µL/min/mg | 9.48 µL/min/mg |  | 0.8 | 2460 nM | IC50 [4]: 116 nM
5 | Cc1cc(O)cc(C)c1C[C@H](NC(=N)N)C(=O)N[C@H](C)C(=O)NC[C@H](Cc1ccccc1)NC(=O)CCNC(=N)N [Example 6] | 8 µL/min/mg | 8.5 µL/min/mg |  |  | 162 nM | 
6 | CN(C)CCC=C1c2ccccc2CCc2ccccc21 [amitriptyline] |  |  |  |  |  | log D (known value of positive control) [6]: 2.7±0.2
7 | Cc1cc(O)cc(C)c1C[C@H](NC(=N)N)C(=O)N[C@H](CC[S+](C)[O-])C(=O)NC[C@H](Cc1ccccc1)NC(=N)N (stereo partly drawn) [Example 10, N-alpha-[amino(imino)methyl]-N-[(1R)-1-{[(2S)-2-{[amino(imino)methyl]amino}-3-phenypropyl]carbamoyl}-3-(methylsulfinyl)propyl]-2,6-dimethyl-L-tyrosinamide bis-trifluoroacetate] |  |  | 17.6 nM |  |  | 
8 | Cc1cc(O)cc(C)c1C[C@H](N=C(N(C)C)N(C)C)C(=O)N[C@H](C)C(=O)NC[C@H](Cc1ccccc1)NC(=N)N [Example 3] |  |  |  |  | 10000 nM | 
9 | Cc1cc(O)cc(C)c1C[C@H](NC(=N)N)C(=O)N[C@H](C)C(=O)NC[C@H](Cc1ccccc1)NC(=O)CNC(=N)N [Example 5] |  |  | 47.6 nM |  |  | 
10 | Cc1cc(O)cc(C)c1C[C@H](NC(=N)N)C(=O)N[C@H](C)C(=O)NCC(CNC(=N)N)Cc1ccccc1 (mixture of isomers) [Example 2] | 15.9 µL/min/mg | 8.5 µL/min/mg | 34.8 nM | -0.7 |  | 
11 | CC(=O)N[C@H](CNC(=O)[C@@H](C)NC(=O)[C@H](Cc1c(C)cc(O)cc1C)NC(=N)N)Cc1ccccc1 [Example 8] | 15.4 µL/min/mg | 12.1 µL/min/mg |  | -0.35 |  | IC50 [4, 10]: 26.6 nM
12 | Cc1cc(O)cc(C)c1C[C@H](NC(=N)N)C(=O)N[C@H](C)C(=O)NC[C@H](Cc1ccccc1)NC(=N)N [Example 1, N-[Amino(imino)methyl]-2,6-dimethyl-L-tyrosyl-N-[(2S)-2-{[amino(imino)methyl]amino}-3-phenylpropyl]-D-alaninamide] | 10.6 µL/min/mg | 8.5 µL/min/mg | 41.4 nM | -0.2 |  | IC50 [4, 10]: 26 nM
13 | Cc1ncc2n1-c1ccc(Cl)cc1C(c1ccccc1F)=NC2 [midazolam] |  |  |  |  |  | log D (known value of positive control) [6]: 3.3±0.2
